Experimental data as given in patent publication US20100210735A1, “Modulating the Activity of Nuclear Receptors in Order to Treat Hypoxia-Related Disorders” (UNIVERSITY OF FLORIDA RESEARCH FOUNDATION, INC., priority 2007, published 2010).
“Also recorded” adds a separate entry of the source.

How the values were obtained:
[1] = test system: HIF-dependent reporter (HRE-Luc); assay: HIF-dependent luciferase reporter (HRE-Luc) assay in SKBR3 cells; format: cell-based, human; conditions: DP (100 uM), DES (50 uM) or 4HT (10 uM)
Experimental: All human cancer cells were maintained in the following basal media (Invitrogen) supplemented with 10% fetal bovine serum: breast cancer cell line MDA-MB-435 in DMEM/F12, melanoma WM266 cells in McCoy's 5A, breast cancer SKBr3 in DMEM. […] The antibiotic G418 was added in the medium (800 ug/mL) for selection of stable dnERR transfectants. Anaerobic culture was achieved using GasPak Pouch System (BD Biosciences). The HIF-dependent reporter HRE-Luc was generated by inserting the two copies of synthetic HRE from PGK1 into a pGL3 luciferase vector. (Promega) Epo-Luc and PGK1-Luc were created by cloning the PCR-amplified HIF-dependent enhancer and promoter regions of Epo and PGK1, respectively, Full-length EST clones encoding ERR-α, -β, -γ, HIF-1α, -2α, -1β were used for in vitro translation (Promega TNT kit), production of GST fusions by cloning into the pGEX vector, and mammalian expression by cloning into modified pcDNA3 vectors with Flag or HA epitope tags. ERR Deletion mutants were generated by PCR. dnERR was constructed by PCR amplification of ERRβ DBD and Engrailed repression domain, followed by a three-way ligation into pcDNA3. Anti-Flag, -HA, -ERRα, and -HIF1α antibodies were obtained from Sigma, Covance, Upstate, and BD Biosciences and Novus, respectively.

[2] = test system: hypoxic genes (VEGF, PGK1, LDHA, Eno1, Glut1) in MDA-MB-435 cells; assay: Northern blot of hypoxic gene expression in MDA-MB-435 breast cancer cells; format: cell-based, human; conditions: severe hypoxia, DES (50 uM)
Text: (§1) For Northern blot analysis, nylon membranes carrying total RNA samples were hybridized with probes made from cDNA fragments encoding for VEGF, PGK1, lactate dehydrogenase A(LDHA), Enolase 1 (Eno1), and Glucose transporter 1 (Glut1). The 18s rRNA and β-actin served as loading controls.
All human cancer cells were maintained in the following basal media (Invitrogen) supplemented with 10% fetal bovine serum: breast cancer cell line MDA-MB-435 in DMEM/F12, melanoma WM266 cells in McCoy's 5A, breast cancer SKBr3 in DMEM. […] The antibiotic G418 was added in the medium (800 ug/mL) for selection of stable dnERR transfectants. Anaerobic culture was achieved using GasPak Pouch System (BD Biosciences).
All procedures followed standard molecular biology techniques. […] HIFα was not stable.
The HIF-mediated hypoxic response is defined by transcriptional activation of many hypoxic genes. We asked whether inhibition of ERR was capable of blocking hypoxic-induced transcription of endogenous genes.

[3] = test system: hypoxic genes (VEGF, glycolytic enzymes) in SKBR3 cells; assay: Northern blot of hypoxic gene expression in SKBR3 breast cancer cells; format: cell-based, human; conditions: DP (100 uM), DES (50 uM)
Text: For Northern blot analysis, nylon membranes carrying total RNA samples were hybridized with probes made from cDNA fragments encoding for VEGF, PGK1, lactate dehydrogenase A(LDHA), Enolase 1 (Eno1), and Glucose transporter 1 (Glut1). The 18s rRNA and β-actin served as loading controls. […] All human cancer cells were maintained in the following basal media (Invitrogen) supplemented with 10% fetal bovine serum: breast cancer cell line MDA-MB-435 in DMEM/F12, melanoma WM266 cells in McCoy's 5A, breast cancer SKBr3 in DMEM. […] The antibiotic G418 was added in the medium (800 ug/mL) for selection of stable dnERR transfectants. Anaerobic culture was achieved using GasPak Pouch System (BD Biosciences). All procedures followed standard molecular biology techniques. […] The HIF-mediated hypoxic response is defined by transcriptional activation of many hypoxic genes.

HIF1α = assay: Western blot analysis for HIF1α in SKBR3 cells; format: cell-based, human; conditions: DP and DES
Text: HIF1α was detected with anti-HIF1α antibody. The same blot was reprobed with an antitubulin antibody. Tubulin served as a loading control. All procedures followed standard molecular biology techniques.

[4] = test system: MDA-MB-435 breast cancer xenograft; assay: Tumor xenograft experiment, human MDA-MB-435 breast cancer cells in SCID mice; format: in vivo; conditions: 750 μg DES daily, oral
Experimental: Tumor volume was measured weekly.
Tumor xenografts were harvested at time of necropsy (after 3 weeks of treatment) and weighed. […] Scale Bars represent average tumor weight.
MDA-MB-435 cells (5×10^6) were resuspended in a mixture of 100 uL of PBS and Matrigel (BD Biosciences, Bedford, Mass.; 2:1 ratio), and injected subcutaneously into the fourth mammary gland fat pad of 6- to 8-week-old female severe combined immunodeficient (SCID) mice. […] The mice bearing tumor xenografts were randomly divided into two groups. […] Tumors were serially measured weekly with a ruler and the tumor volumes were calculated with the following formula: volume (mm^3)=width^2× length/2. After 3 weeks of treatment, the mice were euthanized. All animal studies were approved by the Institutional Animal Care and Use Committee (IACUC) at the University of Florida.
At the end of treatment, tumors were excised and analyzed.

[5] = test system: tumor angiogenesis in MDA-MB-435 xenograft; assay: CD34 immunostaining of tumor xenografts for blood vessel density; format: in vivo, mice; conditions: 750 μg DES daily, oral, after 3 weeks of treatment
Experimental: Tumor transplants were processed and subjected to CD34 immunostaining for blood vessels (brown staining). […] Scale bars, 65 μm. […] Microvessel density was determined by counting the number of CD34 positive blood vessels from four randomly chosen visual fields from each group of tumors. The average number in the fields was taken as the mean of vessel density of the group. Tumors were dissected at time of necropsy, weighed, and fixed in 4% paraformaldehyde in PBS overnight. Samples were dehydrated in 70% ethanol, paraffin embedded, and sectioned ([…]). Deparaffinized sections were stained for CD34 to assess blood vessel density. Briefly, samples were microwaved in sodium citrate (pH 6) for 20 min. for antigen retrieval, and treated with 3% H2O2 at room temperature for 20 min. to quench endogenous peroxidase activity. Sections were then blocked in 1.5% rabbit serum and incubated with rat anti-mouse CD34 antibody (1:100 dilution, clone MEC14.7, BioLegend), followed by biotinylated rabbit anti-rat IgG (1:200 dilution; Vector Laboratories). Detection was done with avidin-biotin-HRP complex (Vector laboratories) and di-aminobenzidin as chromogen. […] As angiogenesis is a key part of hypoxic response and is required to support tumor growth beyond a certain threshold size, we assessed tumor vascularization by performing immunohistochemical staining using anti-CD34 antibody. […]

ERRs (ERRα, ERRβ, ERRγ) = conditions: literature (Tremblay et al, 2001; Ariazi and Jordan, 2006); cited from earlier work
pregnant female mice = conditions: DES 500 μg/mouse; literature (Tremblay et al, 2001); cited from earlier work
[6] = test system: hypoxic genes in A549 lung cancer cells; assay: Hypoxic gene expression in A549 lung cancer cells; format: cell-based, human; conditions: A549 lung cancer cells treated with DP and RES
Text: as §1

ERRγ-HIF association = ERRγ-HIF association (Homo sapiens, UniProt P62508); conditions: DES (50 μM) or 4HT (10 μM); GST pulldown
Chain of ERRγ-HIF association (P62508 whole entry): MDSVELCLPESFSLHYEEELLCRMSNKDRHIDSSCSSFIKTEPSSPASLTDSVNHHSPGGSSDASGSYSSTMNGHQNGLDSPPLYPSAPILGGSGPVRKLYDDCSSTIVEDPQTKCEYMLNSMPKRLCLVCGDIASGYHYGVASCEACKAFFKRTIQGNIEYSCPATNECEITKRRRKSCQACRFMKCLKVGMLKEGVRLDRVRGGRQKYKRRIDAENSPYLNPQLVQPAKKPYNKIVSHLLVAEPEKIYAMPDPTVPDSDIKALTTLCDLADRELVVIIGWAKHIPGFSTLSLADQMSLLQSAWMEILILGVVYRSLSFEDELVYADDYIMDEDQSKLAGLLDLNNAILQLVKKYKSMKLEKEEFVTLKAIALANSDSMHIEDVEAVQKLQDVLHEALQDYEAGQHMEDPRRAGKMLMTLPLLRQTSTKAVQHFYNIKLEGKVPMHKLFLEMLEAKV
Chain of ERRγ-HIF association (Q16665 whole entry partner): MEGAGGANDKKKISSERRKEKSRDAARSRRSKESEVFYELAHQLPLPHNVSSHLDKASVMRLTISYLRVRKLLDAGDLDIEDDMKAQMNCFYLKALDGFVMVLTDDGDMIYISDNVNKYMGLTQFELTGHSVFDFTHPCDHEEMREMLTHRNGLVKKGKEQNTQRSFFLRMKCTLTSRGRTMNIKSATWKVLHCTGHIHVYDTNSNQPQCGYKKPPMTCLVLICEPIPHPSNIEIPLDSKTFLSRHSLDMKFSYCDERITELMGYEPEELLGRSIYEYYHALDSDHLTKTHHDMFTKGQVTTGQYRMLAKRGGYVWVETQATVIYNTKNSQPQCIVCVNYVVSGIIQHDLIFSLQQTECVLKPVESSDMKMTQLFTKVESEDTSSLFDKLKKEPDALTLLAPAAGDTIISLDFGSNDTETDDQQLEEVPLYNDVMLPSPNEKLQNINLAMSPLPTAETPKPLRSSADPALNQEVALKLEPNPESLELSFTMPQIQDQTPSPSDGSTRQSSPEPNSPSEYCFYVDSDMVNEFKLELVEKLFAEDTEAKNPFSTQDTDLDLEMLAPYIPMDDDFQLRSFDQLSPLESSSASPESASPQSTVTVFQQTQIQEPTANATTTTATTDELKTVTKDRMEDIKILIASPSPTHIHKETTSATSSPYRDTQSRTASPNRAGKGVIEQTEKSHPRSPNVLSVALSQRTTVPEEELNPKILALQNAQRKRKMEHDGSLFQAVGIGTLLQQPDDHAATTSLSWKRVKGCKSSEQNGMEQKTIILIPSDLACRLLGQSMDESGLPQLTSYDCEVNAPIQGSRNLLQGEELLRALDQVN
Chain of ERRγ-HIF association (P27540 whole entry partner): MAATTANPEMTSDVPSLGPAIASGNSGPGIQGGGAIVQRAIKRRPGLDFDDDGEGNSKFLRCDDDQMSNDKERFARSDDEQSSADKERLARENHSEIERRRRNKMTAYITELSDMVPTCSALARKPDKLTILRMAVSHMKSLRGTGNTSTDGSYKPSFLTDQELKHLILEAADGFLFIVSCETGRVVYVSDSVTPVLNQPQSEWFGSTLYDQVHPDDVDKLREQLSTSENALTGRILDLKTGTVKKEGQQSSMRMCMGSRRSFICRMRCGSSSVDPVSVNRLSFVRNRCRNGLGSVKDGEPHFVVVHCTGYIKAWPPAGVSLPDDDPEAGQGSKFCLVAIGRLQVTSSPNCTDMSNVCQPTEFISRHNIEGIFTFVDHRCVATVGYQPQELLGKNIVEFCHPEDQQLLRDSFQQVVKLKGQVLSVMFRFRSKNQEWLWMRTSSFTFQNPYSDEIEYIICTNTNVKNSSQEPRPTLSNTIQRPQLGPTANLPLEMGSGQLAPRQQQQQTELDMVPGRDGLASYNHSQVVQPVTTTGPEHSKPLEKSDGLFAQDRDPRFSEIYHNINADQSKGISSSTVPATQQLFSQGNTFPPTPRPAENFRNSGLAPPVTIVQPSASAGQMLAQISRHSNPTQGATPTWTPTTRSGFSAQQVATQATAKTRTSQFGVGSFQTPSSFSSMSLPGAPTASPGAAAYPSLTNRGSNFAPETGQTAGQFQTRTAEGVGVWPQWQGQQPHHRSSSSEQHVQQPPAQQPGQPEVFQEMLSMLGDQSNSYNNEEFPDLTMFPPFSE
Experimental: In vitro translated HIF proteins were mixed with GST or GST-ERR fusions and assayed for binding.
All procedures followed standard molecular biology techniques. […] For GST binding and IP, we used the following binding buffer (20 mM Tris, pH7.5, 150 mM NaCl, 0.5% NP-40, and protease inhibitor cocktail (Roche)). […] In later experiments, we added proteasome inhibitor MG132 (10 uM) into the buffer.
We examined whether mammalian HIF and ERR proteins interact with each other in vitro by the common glutathione S-transferase (GST) pulldown assay. We fused full-length cDNAs of ERRα, β, and γ to GST and generated fusion proteins in bacteria. We assayed them for binding to in vitro translated full-length HIF1α, HIF2α, and HIF1β.
These compounds were tested to determine whether they might interfere with the ERR-HT interaction.

Row | effect on ERRγ-HIF association (ERRγ-HIF association) | Molecule | activation of the HIF-dependent reporter by DP-induced HIF stabilization [1] | transcriptional induction of HIF target genes [2] | transcriptional induction of HIF target genes [3] | HIF1α protein stabilization by DP (HIF1α) | tumor volumes and growth rate versus vehicle-treated control ([4]; 3 weeks, SCID mice) | tumor xenograft growth upon treatment ([4]; SCID mice) | tumor weight at end of treatment versus vehicle-treated mice ([4]; after 3 weeks of treatment) | micro vascular density in tumors (CD34 positive blood vessels) [5] | activity on ERRs / ERR-coactivator interaction (ERRs (ERRα, ERRβ, ERRγ)) | effect in pregnant female mice (pregnant female mice) | hypoxia-induced gene transcription [6] | hypoxia-induced gene transcription ([6]; listed as Resveratrol)
1 | – | CC/C(=C(/CC)c1ccc(O)cc1)c1ccc(O)cc1 [DES, diethylstilbestrol] | severely impaired; also recorded: attenuates HIF activity | largely abolished | largely abolished | stabilized normally | dramatic reduction | essentially stopped growing | about 3 times lighter | clear reduction; also recorded: few blood vessels; also recorded: reduced | antagonist of all three ERRs | placental defects | – | –
2 | – | Oc1ccc(C=Cc2cc(O)cc(O)c2)cc1 [resveratrol] | – | – | – | – | – | – | – | – | capable of dissociating coactivator complexes from all three ERRs, albeit at higher concentrations than DES | – | manifested inhibitory activities | reduced hypoxic gene expression
3 | resistant; also recorded: insensitive | 4-hydroxytamoxifen [4HT] | Lack of effects | – | – | – | – | – | – | – | selectively inhibits ERRγ | – | – | –
